Results from publication PMC7884679 (British Journal of Cancer, 2020).
Entries after “also recorded” stand apart in the source; their conditions may differ.

Columns and labels:
clinical = conditions: human, in vivo; for AUC(0-t): AUC0–12; for AUC(0-inf): AUC0–∞; for Vd/F: Vz/f
Method: (§1) Safety was assessed through the recording, reporting and analysis of baseline medical conditions, AEs, physical examination findings (including vital signs and monitoring for bleeding), laboratory tests, ECOG PS and 12-lead electrocardiograms. […] PK was assessed using blood samples collected pre-treatment and on-treatment. […] Tumour response was evaluated according to RECIST (v1.1). Target and non-target lesions were measured by computed tomography or magnetic resonance imaging every 6 weeks.
The cut-off for the final analysis was when the last patient completed the dose-escalation phase (29 June 2017). The All Patients Analysis Set comprised all patients who provided informed consent (screening failures plus enrolled patients) and was used to describe patient disposition and deaths. […] The Efficacy Analysis Set, including patients who received at least one treatment dose, was used for all efficacy summaries. […] The Biomarker/Pharmacogenomics Analysis Set included patients who received at least the first dose of study drug and provided at least one pre-dose sample and one post-dose sample.

[1] = test system: patients with advanced solid tumours; test: Safety and tolerability: treatment-emergent adverse events (CTCAE v4.03); type: in vivo
Method: (§2) In addition, a DLT could be identified by the SMC as any TEAE that impaired daily function or abnormality occurring in patients treated with peposertib at any time during the dose escalation part of the study.
as §1
(§3) TEAEs were summarised according to Medical Dictionary for Regulatory Activities (v20.0) preferred term and system organ class. All statistical analyses (except for PK) were performed using SAS 9.1.3 or higher. Tumour assessments, based on investigator evaluations of target, non-target and new lesions according to RECIST (v1.1), were used to derive the best overall response. Trial data were summarised by dose level.

[2] = test system: patients with advanced solid tumours; test: Dose escalation 3 + 3: DLT, MTD, RP2D; type: in vivo
From the text: Dose escalation was by use of a standard ‘3 + 3’ design, based on the presence/absence of dose-limiting toxicities (DLTs). […] The starting dose was considered to have acceptable safety and to be in the range of the biologically active dose based on in vivo pharmacology data.[7]
The MTD was defined as the dose level below the dose at which two out of six patients experienced a DLT. Once the MTD was established, the RP2D was to be defined by the Safety Monitoring Committee (SMC), either at the MTD level or below, depending on the available safety, efficacy, PK and PD data.
as §2

advanced solid tumours = test: Tumour response by RECIST v1.1; type: in vivo, human
Method: as §1, §3

human cyclooxygenase 1 = target: T1, human cyclooxygenase 1 (Homo sapiens, UniProt P23219); test: Platelet aggregation in aspirin-naïve patients at the RP2D; type: in vivo; conditions: aspirin-naïve cohort, 400 mg BID
T1 construct: endogenous in cells; host or cells: platelets of aspirin-naïve patients treated at the RP2D
T1 sequence (P23219 24-599): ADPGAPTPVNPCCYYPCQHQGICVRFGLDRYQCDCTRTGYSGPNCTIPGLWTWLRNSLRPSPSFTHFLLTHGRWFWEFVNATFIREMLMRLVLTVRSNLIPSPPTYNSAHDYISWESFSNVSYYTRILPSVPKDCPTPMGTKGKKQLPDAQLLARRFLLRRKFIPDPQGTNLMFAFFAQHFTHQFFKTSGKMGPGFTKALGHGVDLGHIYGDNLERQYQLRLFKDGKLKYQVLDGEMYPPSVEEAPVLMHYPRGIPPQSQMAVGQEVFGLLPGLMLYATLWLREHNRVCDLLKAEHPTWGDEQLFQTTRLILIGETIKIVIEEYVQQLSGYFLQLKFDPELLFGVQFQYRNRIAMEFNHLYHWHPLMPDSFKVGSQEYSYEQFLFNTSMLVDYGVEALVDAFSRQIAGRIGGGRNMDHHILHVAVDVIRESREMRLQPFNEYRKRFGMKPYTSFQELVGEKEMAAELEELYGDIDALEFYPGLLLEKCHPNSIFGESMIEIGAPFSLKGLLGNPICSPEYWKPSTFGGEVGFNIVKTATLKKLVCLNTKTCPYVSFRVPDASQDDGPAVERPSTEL

DNA-PK = conditions: preclinical ref 6–8; cited from earlier work
PI3K lipid kinases = test system: PI3K lipid kinases; design: method as in PMID 32220971; conditions: cited from earlier work
phosphorylation of AKT = test system: phosphorylation of AKT; design: method as in PMID 32220971; conditions: preclinical experiments ref 8; cited from earlier work
platelet aggregation = conditions: preclinical data; cited from earlier work
[3] = test system: repair of radiation- or chemotherapy-induced DNA DSBs; conditions: preclinical studies ref 6–10; cited from earlier work

In the case of `COc1ccc([C@@H](O)c2cc(-c3ncnc4cc(N5CCOCC5)ccc34)c(F)cc2Cl)nn1` [Peposertib, peposertib], the Tmax (clinical) is reported as 1.5 h, the “geometric mean percent coefficient of variation (%CV) for Cmax” value (clinical) is reported as 15.5–117% and the AUC(0-t) (clinical; 100 mg) is reported as 2290 ng·h/mL. For the same compound, the AUC(0-inf) (clinical; 100 mg) was 2920 ng·h/mL, the Cmax (clinical; 100 mg) was 440 ng/mL and the Vd/F (clinical; 100 mg) was 276 L. For the same compound, the half-life (clinical; 100 mg, t1/2) was 5.5 h, the Tmax (clinical; 100 mg, tmax) was 1.8 h and the AUC(0-t) (clinical; 150 mg) was 3040 ng·h/mL. The AUC(0-inf) (clinical; 150 mg) was 3770 ng·h/mL, the Cmax (clinical; 150 mg) was 695 ng/mL and the Vd/F (clinical; 150 mg) was 304 L. The half-life (clinical; 150 mg, t1/2) was 5.1 h, the Tmax (clinical; 200 mg, tmax) was 1.4 h and the Vd/F (clinical; 300 mg) was 662 L. The half-life (clinical; 300 mg, t1/2) was 4.7 h, the Tmax (clinical; 300 mg, tmax) was 1.9 h and the AUC(0-inf) (clinical; 400 mg) was 4140 ng·h/mL. The Tmax (clinical; 400 mg, tmax) was 2.4 h, the half-life (clinical; mean elimination half-life) was roughly 5.5 h and the Tmax (clinical; po, median tmax) was 1.1 to 2.5 h. The “Number of patients with: Any TEAE leading to death” value (“Number … Any TEAE leading to death” for short) ([1]; 100/QD n = 3) was 0 (0) n (%), the “Number of patients with: Any peposertib related TEAE leading to death” value ([1]; 100/QD n = 3) was 0 (0) n (%) and the “Number … Any TEAE leading to death” value ([1]; 150/BID n = 3) was 0 (0) n (%). The “Number of patients with: Any peposertib related TEAE leading to death” value ([1]; 150/BID n = 3) was 0 (0) n (%), the “Number … Any TEAE leading to death” value ([1]; 200/BID n = 3) was 0 (0) n (%) and the “Number of patients with: Any peposertib related TEAE leading to death” value ([1]; 200/BID n = 3) was 0 (0) n (%). The “Number … Any TEAE leading to death” value ([1]; 200/QD n = 3) was 0 (0) n (%), the “Number of patients with: Any peposertib related TEAE leading to death” value ([1]; 200/QD n = 3) was 0 (0) n (%) and the “Number … Any TEAE leading to death” value ([1]; 300/BID n = 9) was 0 (0) n (%). For the same compound, the “Number of patients with: Any peposertib related TEAE leading to death” value ([1]; 300/BID n = 9) was 0 (0) n (%), the “Number … Any TEAE leading to death” value ([1]; 400/BID (RP2D) n = 6) was 0 (0) n (%) and the “Number of patients with: Any peposertib related TEAE leading to death” value ([1]; 400/BID (RP2D) n = 6) was 0 (0) n (%). For the same compound, the “Number … Any TEAE leading to death” value ([1]; 400/BID n = 4) was 1 (25) n (%), the “Number of patients with: Any peposertib related TEAE leading to death” value ([1]; 400/BID n = 4) was 0 (0) n (%) and the “Number … Any TEAE leading to death” value ([1]; Total N = 31) was 1 (3) n (%). The “Number of patients with: Any peposertib related TEAE leading to death” value ([1]; Total N = 31) was 0 (0) n (%), the “Grade 3 peposertib-related maculo-papular rash, patients” value ([1]; human, in vivo) was 4 n and the “Grade 3 peposertib-related nausea, patients” value ([1]; human, in vivo) was 2 n. For the same compound, the “Number of patients with: Any peposertib-related Grade ≥4 TEAE” value ([1]; human, in vivo) was 0 (0) n (%), the “TEAE constipation, patients” value ([1]; human, in vivo) was 10 n and the “TEAE fatigue, patients” value ([1]; human, in vivo) was 14 n. For the same compound, the “TEAE nausea, patients” value ([1]; human, in vivo) was 17 n, the “TEAE pyrexia, patients” value ([1]; human, in vivo) was 11 n and the “Treatment-related TEAE: Constipation, Grade 3” value ([1]; human, in vivo) was 0 (0) n (%). The “Treatment-related TEAE: Decreased appetite, Grade 3” value ([1]; human, in vivo) was 0 (0) n (%), the “Treatment-related TEAE: Diarrhoea, Grade 3” value ([1]; human, in vivo) was 0 (0) n (%) and the “Treatment-related TEAE: Dry mouth, Grade 3” value ([1]; human, in vivo) was 0 (0) n (%). For the same compound, the “Treatment-related TEAE: Periorbital oedema, Grade 3” value ([1]; human, in vivo) was 0 (0) n (%), the “Treatment-related TEAE: Vomiting, Grade 3” value ([1]; human, in vivo) was 0 (0) n (%) and the “patients with a serious TEAE” value ([1]; human, in vivo) was 55%. The “patients with at least one TEAE” value ([1]; human, in vivo) was 31 patients, the “patients with at least one TEAE of Grade ≥3” value ([1]; human, in vivo) was 68% and the “patients with peposertib-related Grade 3 TEAEs” value ([1]; human, in vivo) was 23%. The “peposertib-related Grade 4 TEAEs” value ([1]; human, in vivo) was “no peposertib-related Grade 4 TEAEs”, the deaths considered treatment-related ([1]; three patients died due to disease progression) was “None” and the “maximum-tolerated dose (MTD)” value ([2]; dose escalation up to 400 mg BID) was “not reached”. The “recommended phase 2 dose (RP2D)” value ([2]; human, in vivo, 21 days) was 400 mg BID, the “patients with stable disease for ≥12 weeks” value (advanced solid tumours; RECIST v1.1) was “seven” and the “objective tumour responses (complete or partial)” value (advanced solid tumours; RECIST v1.1, all doses) was “No objective tumour responses”. For the same compound, the “duration of stable disease” value (advanced solid tumours; one patient, metastatic hepatocellular carcinoma, prior progression on sorafenib, at data cut-off) was 69 weeks, the patients not evaluable (advanced solid tumours; tumour assessment at screening only) was 16% and the “time remained on treatment” value (advanced solid tumours; two patients (metastatic renal cell carcinoma; tonsillar squamous cell carcinoma), 400 mg BID) was 36 weeks. For the same compound, the “effect on platelet aggregation” value (human cyclooxygenase 1) was “very weak effect; also recorded: only a weak effect”, the “concentrations blocking DNA-PK kinase activity” value (DNA-PK) was “sub-nanomolar” and the “potency on PI3K lipid kinases” value (PI3K lipid kinases; compared with DNA-PK, preclinical studies ref 8) was “significantly lower potency”. For the same compound, the “potency against DNA-PK versus other PI3K and PI3K-related family members” value (PI3K lipid kinases; preclinical ref 8) was “substantially greater”, the “inhibition of the phosphorylation of AKT” value (phosphorylation of AKT) was “only moderate inhibition” and the “inhibition of platelet aggregation” value (platelet aggregation) was “reversible inhibition of platelet aggregation at micromolar concentrations”. For the same compound, the “synergy with radiotherapy and DSB-inducing chemotherapies (e.g. etoposide, doxorubicin)” value [3] was “demonstrated synergy”.
